Results as given in patent publication US11717508B2, “Compounds, compositions, and methods for inhibiting bacterial growth” (priority 2016, dated 2023).
Several values for one entry are separate records, joined by “and”; a condition that tells them apart may be missing. Equal values may be shown once. Read-outs that look alike come from different tables or passages of the source.

Test system: DosRST regulon
Type: cell-based

SMILES: C[C@@H]1CC[C@H]2[C@@H](C)C(=O)O[C@@H]3O[C@]4(C)CC[C@@H]1[C@]32OO4 [HC101A, artemisinin, reference compound]
- downregulation of tgs1 gene (transcriptional profiling) (CDC1551, 40 μM, 6 days): ~100 fold
- Counts per million (CPM) WT_HC101A (gene MT0055): 35.17 CPM and 29.03 CPM
- log2 Fold change (gene MT0055): −1.288
- Counts per million (CPM) WT_HC101A (gene MT0062 (Rv0056 rp11)): 104.6 CPM and 99.67 CPM
- log2 Fold change (gene MT0062 (Rv0056 rp11)): −1.059
- log2 Fold change (gene MT0086 Rv0079): −1.314
- Counts per million (CPM) WT_HC101A (gene MT0105 (Rv0096 PPE)): 8.529 CPM and 7.796 CPM
- log2 Fold change (gene MT0105 (Rv0096 PPE)): −1.583
- Counts per million (CPM) WT_HC101A (gene MT0106 (Rv0097)): 24.38 CPM and 21.53 CPM
- log2 Fold change (gene MT0106 (Rv0097)): −1.646
- Counts per million (CPM) WT_HC101A (gene MT0107 (Rv0098)): 11.7 CPM and 9.891 CPM
- log2 Fold change (gene MT0107 (Rv0098)): −1.652
- Counts per million (CPM) WT_HC101A (gene MT0108 (Rv0099 fadD10)): 39.35 CPM and 32.64 CPM
- log2 Fold change (gene MT0108 (Rv0099 fadD10)): −1.057
- Counts per million (CPM) WT_HC101A (gene MT0117): 157.5 CPM and 202.6 CPM
- log2 Fold change (gene MT0117): −1.008
- Counts per million (CPM) WT_HC101A (gene MT0122 (Rv0113 gmhA)): 36.48 CPM and 25.54 CPM
- log2 Fold change (gene MT0122 (Rv0113 gmhA)): −1.031
- Counts per million (CPM) WT_HC101A (gene MT0124): 5.295 CPM and 3.898 CPM
- log2 Fold change (gene MT0124): −1.954
- Counts per million (CPM) WT_HC101A (gene MT0175 (Rv0166 fadD5)): 67.07 CPM and 45.73 CPM
- log2 Fold change (gene MT0175 (Rv0166 fadD5)): −1.959
- Counts per million (CPM) WT_HC101A (gene MT0176): 118.5 CPM and 96.7 CPM
- log2 Fold change (gene MT0176): −1.284
- Counts per million (CPM) WT_HC101A (gene MT0178 (Rv0169 mcel)): 178.5 CPM and 133.6 CPM
- log2 Fold change (gene MT0178 (Rv0169 mcel)): −1.664
- log2 Fold change (gene MT0179 (Rv0170)): −1.755
- log2 Fold change (gene MT0180 (Rv0171)): −1.645
- log2 Fold change (gene MT0181 (Rv0172)): −1.502
- log2 Fold change (gene MT0182 (Rv0173 IprK)): −1.638
- log2 Fold change (gene MT0183 (Rv0174)): 1.264
- log2 Fold change (gene MT0241 (Rv0231 fadE4)): −1.266
- log2 Fold change (gene MT0244 (Rv0233 nrdB)): −1.533
- log2 Fold change (gene MT0329 (Rv0315)): −1.589
- log2 Fold change (gene MT0417): −1.313
- log2 Fold change (gene MT0423 (Rv0410c pknG)): −1.948
- log2 Fold change (gene MT0424 (Rv0411c glnH)): −1.654
- log2 Fold change (gene MT0425 (Rv0412c)): −1.504
- log2 Fold change (gene MT0429 (Rv0416)): −1.414
- log2 Fold change (gene MT0434): −1.079
- log2 Fold change (gene MT0524): −1.085
- log2 Fold change (gene MT0595 Rv0569): −2.701
- log2 Fold change (gene MT0596 Rv0570 nrdZ): −4.516
- log2 Fold change (gene MT0597 Rv0571c): −2.001
- log2 Fold change (gene MT0599 Rv0572c): −3.648
- log2 Fold change (gene MT0600): −4.304
- log2 Fold change (gene MT0601 Rv0573c): −2.988
- log2 Fold change (gene MT0602 Rv0574c): −3.56
- log2 Fold change (gene MT0637 (Rv0608)): −1.073
- log2 Fold change (gene MT0735 (Rv0708 rplP)): −1.134
- log2 Fold change (gene MT0736 (Rv0709 rpmC)): −1.065
- log2 Fold change (gene MT0741): −1.181
- log2 Fold change (gene MT0741.1 (Rv0715 rplX)): −1.23
- log2 Fold change (gene MT0742.1 (Rv0717 rpsN)): −1.057
- log2 Fold change (gene MT0747 (Rv0722 rpmD)): −1.393
- log2 Fold change (gene MT0846 Rv0824c desA1): −1.662
- log2 Fold change (gene MT0877 (Rv0854)): −1.066
- log2 Fold change (gene MT0898): −3.3
- log2 Fold change (gene MT0908 (Rv0885)): −1.929
- log2 Fold change (gene MT0909 (Rv0886 fprB)): −1.498
- log2 Fold change (gene MT0911 (Rv0888)): −2.361
- log2 Fold change (gene MT1002 (Rv0974c accD2)): −1.787
- log2 Fold change (gene MT1019 (Rv0990c)): −1.168
- log2 Fold change (gene MT1020): −1.37
- log2 Fold change (gene MT1056 (Rv1037c)): −1.377
- log2 Fold change (gene MT1095 Rv1065): −1.172
- Counts per million (CPM) WT_HC101A (gene MT1823 (Rv1773c)): 189.6 CPM and 111.2 CPM
- log2 Fold change (gene MT1823 (Rv1773c)): −1.79
- Counts per million (CPM) WT_HC101A (gene MT1840 (Rv1791 PE)): 169.4 CPM and 147.4 CPM
- log2 Fold change (gene MT1840 (Rv1791 PE)): −1.118
- Counts per million (CPM) WT_HC101A (gene MT1850 (Rv1812c)): 69.36 CPM and 114.1 CPM
- log2 Fold change (gene MT1850 (Rv1812c)): −1.173
- log2 Fold change (gene MT1851 Rv1813c): −4.29
- Counts per million (CPM) WT_HC101A (gene MT1882 (Rv1834)): 28.5 CPM and 25.48 CPM
- log2 Fold change (gene MT1882 (Rv1834)): −1.56
- Counts per million (CPM) WT_HC101A (gene MT1932): 219.8 CPM and 285.7 CPM
- log2 Fold change (gene MT1932): −1.182
- Counts per million (CPM) WT_HC101A (gene MT1942): 74.52 CPM and 69.7 CPM
- log2 Fold change (gene MT1942): −1.048
- Counts per million (CPM) WT_HC101A (gene MT1943): 65.44 CPM and 61.15 CPM
- log2 Fold change (gene MT1943): −1.048
- Counts per million (CPM) WT_HC101A (gene MT1955 (Rv1904)): 88.58 CPM and 104.4 CPM
- log2 Fold change (gene MT1955 (Rv1904)): −1.006
- Counts per million (CPM) WT_HC101A (gene MT1959 (Rv1918c PPE)): 62.82 CPM and 65.51 CPM
- log2 Fold change (gene MT1959 (Rv1918c PPE)): −1.121
- Counts per million (CPM) WT_HC101A (gene MT1986 (Rv1936)): 47.53 CPM and 27.87 CPM
- log2 Fold change (gene MT1986 (Rv1936)): −2.373
- Counts per million (CPM) WT_HC101A (gene MT1987 (Rv1937)): 66.35 CPM and 34.04 CPM
- log2 Fold change (gene MT1987 (Rv1937)): −2.295
- Counts per million (CPM) WT_HC101A (gene MT1988 (Rv1938 cphB)): 24.12 CPM and 13.5 CPM
- log2 Fold change (gene MT1988 (Rv1938 cphB)): −2.344
- Counts per million (CPM) WT_HC101A (gene MT1989 (Rv1939)): 13.56 CPM and 7.389 CPM
- log2 Fold change (gene MT1989 (Rv1939)): −2.045
- Counts per million (CPM) WT_HC101A (gene MT2007): 22.23 CPM and 14.6 CPM
- log2 Fold change (gene MT2007): −1.243
- Counts per million (CPM) WT_HC101A (gene MT2016 (Rv1964)): 104.5 CPM and 57.78 CPM
- log2 Fold change (gene MT2016 (Rv1964)): −1.754
- Counts per million (CPM) WT_HC101A (gene MT2017): 43.41 CPM and 25.54 CPM
- log2 Fold change (gene MT2017): −2.544
- Counts per million (CPM) WT_HC101A (gene MT2018 (Rv1966 mce3)): 50.34 CPM and 26.88 CPM
- log2 Fold change (gene MT2018 (Rv1966 mce3)): −2.558
- Counts per million (CPM) WT_HC101A (gene MT2019 (Rv1967)): 52.89 CPM and 27.87 CPM
- log2 Fold change (gene MT2019 (Rv1967)): −2.496
- log2 Fold change (gene MT2020 Rv1968): −2.621
- Counts per million (CPM) WT_HC101A (gene MT2021 (Rv1969)): 23.73 CPM and 17.45 CPM
- log2 Fold change (gene MT2021 (Rv1969)): −1.799
- Counts per million (CPM) WT_HC101A (gene MT2022 (Rv1970 lprM)): 37.39 CPM and 24.44 CPM
- log2 Fold change (gene MT2022 (Rv1970 lprM)): −2.347
- Counts per million (CPM) WT_HC101A (gene MT2023 (Rv1971)): 53.54 CPM and 31.19 CPM
- log2 Fold change (gene MT2023 (Rv1971)): −2.293
- Counts per million (CPM) WT_HC101A (gene MT2024 (Rv1972)): 16.15 CPM and 10.41 CPM
- log2 Fold change (gene MT2024 (Rv1972)): −1.124
- Counts per million (CPM) WT_HC101A (gene MT2042.1): 19.87 CPM and 29.96 CPM
- log2 Fold change (gene MT2042.1): −1.522
- Counts per million (CPM) WT_HC101A (gene MT2050 (Rv2004c)): 234 CPM and 227.9 CPM
- log2 Fold change (gene MT2050 (Rv2004c)): −3.602
- Counts per million (CPM) WT_HC101A (gene MT2051 (Rv2005c)): 149.3 CPM and 179.3 CPM
- log2 Fold change (gene MT2051 (Rv2005c)): −3.859
- Counts per million (CPM) WT_HC101A (gene MT2052 (Rv1996)): 177.9 CPM and 195.4 CPM
- log2 Fold change (gene MT2052 (Rv1996)): −7.087
- Counts per million (CPM) WT_HC101A (gene MT2052 (Rv2006 otsB)): 122.8 CPM and 137.5 CPM
- log2 Fold change (gene MT2052 (Rv2006 otsB)): −2.478
- Counts per million (CPM) WT_HC101A (gene MT2053 (Rv1997 ctpF)): 70.21 CPM and 92.04 CPM
- log2 Fold change (gene MT2053 (Rv1997 ctpF)): 4.931
- log2 Fold change (gene MT2053 (Rv2007c fdxA)): −3.149
- Counts per million (CPM) WT_HC101A (gene MT2059 (Rv2003c)): 101.8 CPM and 119.9 CPM
- log2 Fold change (gene MT2059 (Rv2003c)): −2.726
- Counts per million (CPM) WT_HC101A (gene MT2079 (Rv2023c)): 11.24 CPM and 12.86 CPM
- log2 Fold change (gene MT2079 (Rv2023c)): −1.5
- Counts per million (CPM) WT_HC101A (gene MT2080): 28.31 CPM and 33.92 CPM
- log2 Fold change (gene MT2080): −1.521
- Counts per million (CPM) WT_HC101A (gene MT2086 (Rv2027c)): 56.35 CPM and 58.94 CPM
- log2 Fold change (gene MT2086 (Rv2027c)): −2.22
- log2 Fold change (gene MT2087 Rv2028c): −3.553
- Counts per million (CPM) WT_HC101A (gene MT2088): 91.91 CPM and 170.4 CPM
- log2 Fold change (gene MT2088): −4.873
- log2 Fold change (gene MT2089 Rv2030c): −4.16
- log2 Fold change (gene MT2090): −5.249
- log2 Fold change (gene MT2091 Rv2032): −4.893
- Counts per million (CPM) WT_HC101A (gene MT2156 (Rv2107 PE)): 20.07 CPM and 13.38 CPM
- log2 Fold change (gene MT2156 (Rv2107 PE)): −1.59
- Counts per million (CPM) WT_HC101A (gene MT2278 (Rv2220 glnAl)): 436.2 CPM and 385.9 CPM
- log2 Fold change (gene MT2278 (Rv2220 glnAl)): −1.475
- Counts per million (CPM) WT_HC101A (gene MT2304 (Rv2244 acpM)): 626.7 CPM and 987.4 CPM
- log2 Fold change (gene MT2304 (Rv2244 acpM)): −2.163
- log2 Fold change (gene MT2305 (Rv2245 kasA)): −1.728
- Counts per million (CPM) WT_HC101A (gene MT2306): 581.8 CPM and 834.9 CPM
- log2 Fold change (gene MT2306): −1.559
- log2 Fold change (gene MT2307 (Rv2247 accD6)): −1.121
- Counts per million (CPM) WT_HC101A (gene MT2329 (Rv2267c)): 24.25 CPM and 27 CPM
- log2 Fold change (gene MT2329 (Rv2267c)): −1.234
